As a reminder, the pIC50 is the IC50 on a negative log10 scale, so that one unit is a factor of ten.

pIC50: −log10 of the molar value. Some results are limits rather than exact numbers.

Data on 10 molecules can be found in patent publication US20230391792A1, “METHODS AND COMPOSITIONS FOR TARGETED PROTEIN DEGRADATION” (Ranok Therapeutics (Hangzhou) Co. Ltd., priority 2020, published 2023).

Assay [1] deals with T1, HSP90α protein (N-terminal) (Homo sapiens, UniProt P07900).
T1 construct: purchased BPS Bioscience #50298
As to the kind of experiment: HSP90α-binding fluorescent polarization (FP) assay, competition with BODIPY-labeled RNK04010. The conditions noted are these: probe RNK04010 (BODIPY-labeled) 5 nM, 25° C. 300 min. The protocol: (§1) Binding of test compounds to HSP90α protein was measured by fluorescent polarization (FP) using the HSP90α (N-terminal) Assay Kit (BPS Bioscience, #50298), following the manufacturer's instructions, except as noted. Fluorescently labeled HSP90-binding compounds, either the provided FITC-geldanamycin (5 nM final concentration) or RNK04010, a triazolone-based HSP90-binding small molecule labeled with BODIPY through a piperizine-phenyl linker (5 nM final concentration) were employed. A 2.5-fold serial dilution of each test compound ranging from 20 μM to 5.2 nM was assayed for binding to HSP90α. After the final step of adding HSP90α protein to each assay well, plates were mixed by brief shaking, incubated at 25° C. for 120 min for FITC-geldanamycin or 300 min for RNK04010, and fluorescence was measured using a PerkinElmer EnVision Plate Reader.
(§2) HSP90α-binding fluorescent polarization (FP) assays measuring competition with the fluorescently labeled HSP90 binders, FITC-geldanamycin or RNK04010 (BODIPY-labeled), were applied to assess the binding capabilities of CHAMP molecules to HSP90.

Assay [2] deals with T1, HSP90α protein (N-terminal). As to the kind of experiment: HSP90α-binding fluorescent polarization (FP) assay, competition with FITC-geldanamycin. The conditions noted are these: probe FITC-geldanamycin 5 nM, 25° C. 120 min. The method, then:
as §1, §2

As to `Cc1sc2c(c1C)C(c1ccc(Cl)cc1)=NC(CC(=O)N1CCC(CN3CCN(Cc4ccc(-n5c(O)nnc5-c5cc(C(C)C)c(O)cc5O)cc4)CC3)CC1)c1nnc(C)n1-2` (stereo not drawn) [Compound 1], the pIC50 in assay [1] and in assay [2] was 6.00 to 7.00 throughout.
`CCc1cc(-c2nnc(O)n2-c2ccc(CN3CCN(CC4CCN(C(=O)C[C@@H]5N=C(c6ccc(Cl)cc6)c6c(sc(C)c6C)-n6c(C)nnc65)CC4)CC3)c(F)c2)c(O)cc1O` [Compound 53] showed a pIC50 in assay [2] of 6.00 to 7.00.
On the same count and under the same terms, the value for `Cc1cc(-c2nnc(O)n2-c2ccc(CN3CCN(CC4CCN(C(=O)C[C@@H]5N=C(c6ccc(Cl)cc6)c6c(sc(C)c6C)-n6c(C)nnc65)CC4)CC3)c(F)c2)c(O)cc1O` [Compound 54] was 6.00 to 7.00; that for `CCOc1cc(N2CCC(C(=O)NCOCCN3CCC(Cc4ccc(-n5c(O)nnc5-c5cc(C(C)C)c(O)cc5O)cc4)CC3)CC2)ccc1Nc1ncc2c(n1)N(C)c1ccccc1C(=O)N2C` [Compound 111] was 6.00 to 7.00.
The same measure, in the same setting: the value for `CCOc1cc(N2CCC(C(=O)NCCOCCOc3ccc(-n4c(O)nnc4-c4cc(CC)c(O)cc4O)cc3)CC2)ccc1Nc1ncc2c(n1)N(C)c1ccccc1C(=O)N2C` [Compound 112] was 6.00 to 7.00.
`CCc1cc(-c2nnc(O)n2-c2ccc(CN3CCC(C(=O)N4CCC(Nc5ncc(NC(=O)c6cc(C(=O)c7c(Cl)ccc(Cl)c7F)c[nH]6)cn5)CC4)CC3)cc2)c(O)cc1O` [Compound 116] had a negative-log IC50 (pIC50) in assay [2] of 6.00 to 7.00.
On the same count and under the same terms, the value for `CCOc1cc(N2CCC(C(=O)NCCOCCOCCOc3ccc(Nc4cc(-n5nc(C(F)(F)F)c6c5CC(C)(C)CC6=O)ccc4C(N)=O)cc3)CC2)ccc1Nc1ncc2c(n1)N(C)c1ccccc1C(=O)N2C` [Compound 161] was below 6.00; that for `CCn1c(=O)/c(=C2\Sc3ccccc3N2C)s/c1=C\c1cccc[n+]1CCCCCCNC(=O)C[C@@H]1N=C(c2ccc(Cl)cc2)c2c(sc(C)c2C)-n2c(C)nnc21` [Compound 163] was below 6.00.
For `CC[C@@H](C)Nc1cc(C(=O)NC2CC3CCC(C2)N3c2ccc(C(=O)c3ccc(CN4CCN(CC5CCN(C(=O)C[C@@H]6N=C(c7ccc(Cl)cc7)c7c(sc(C)c7C)-n7c(C)nnc76)CC5)CC4)cc3)cn2)c(C)cc1C(N)=O` (stereo partly drawn) [Compound 165], the pIC50 in assay [1] and in assay [2] was below 6.00 throughout.
For `CC[C@@H](C)Nc1cc(C(=O)NC2CC3CCC(C2)N3c2ccc(C(=O)Nc3ccc(CN4CCN(CC5CCN(C(=O)C[C@@H]6N=C(c7ccc(Cl)cc7)c7c(sc(C)c7C)-n7c(C)nnc76)CC5)CC4)cc3)cn2)ccc1C(N)=O` (stereo partly drawn) [Compound 166], in assay [2], the pIC50 is below 6.00.
